Molecules are shown by their SMILES. pEC50, pIC50: −log10 of the molar value. Where a name gives a salt, the structure may show the parent alone. Read-outs that look alike come from different tables or passages of the source.

Assay [1] deals with PDK1 (Homo sapiens (Human), UniProt O15530). Kind of assay: PDK1 kinase assay (coupled PDK1/AKT/FAM-crosstide assay, IMAP fluorescence polarization). The format is biochemical. As for the experimental part:
A PDK1 kinase assay was performed as follows. PDK1 (amino acids 51-359) and AKT2 (amino acids 140-467 fused to PIFtide, amino acids […]) were expressed as N-terminally tagged GST fusion proteins in insect cells and purified to homogeneity. Enzyme activity was determined in a coupled PDK1/AKT/FAM-crosstide assay and phosphorylation of FAM-crosstide was determined by standard IMAP protocol (Molecular Devices). For inhibition studies, compounds were titrated 4-fold in DMSO and diluted 40-fold into assay buffer (10 mM Tris HCl pH7.2; 10 mM MgCl2; 0.01% Triton X-100; 1 mM DTT) containing PDK1, AKT2, and FAM-crosstide (final concentrations: 0.75 nM PDK1, 10 nM unphosphorylated AKT2, and 100 nM crosstide substrate). The kinase reaction was initiated by adding ATP to a final concentration of 40 μM of PDK1 and incubated at 25° C. for 30 min. To detect assay product, the kinase reaction was combined with Progressive Binding Solution (1:600 Progressive Binding Reagent, 50% Buffer A, 50% Buffer B, Molecular Devices) in a 1:3 ratio. The mixture was incubated for 2 hours at 25° C. and the plate was scanned on an Analyst AD with excitation at 485 nm and emission at 530 nm. The fluorescence polarization value “P” is defined by the equation below. The value “mP” is generated by multiplying the P value for each reaction well by a factor of 1000. The value “ΔmP” for each well is the mP value for that well minus the mP value for the average negative control. P=(Fpar−Fperp)/(Fpar+Fperp) Eq.:
Where “par” is fluorescence intensity parallel to the excitation plane; and “perp” is fluorescence intensity perpendicular to the excitation plane. ΔmP values were plotted as a function of compound concentration and the data were analyzed with a 4-parameter fit using GraphPad Prism software.

Assay [2] has as its system phospho-akt (Thr308) in PC-3 cells. The experiment in a line: Inhibition of phospho-akt (Thr308) in PC-3 cells, MSD phospho-akt 308 ELISA kit. The format is cell-based. The following applies: Homo sapiens. As to the method: PC-3 cells were harvested by trypsin and counted. Cells were plated in coated 96-well flat bottom plates (plate 15,000 cells/well in 100 ul growth media (10% FBS, 1× pen-strep) an place in an incubator overnight.
Subject inhibitors were stocked at 50 mM, then diluted to 30 mM (4.8 μl cpd plus […] DMSO) in 100% DMSO. Three-fold dilutions were performed from 30 mM stock. (4 μl into 8 ul 100% DMSO). Aliquots of 1.0 μl of inhibitor solution were transferred into SF Medium (using deep well block).
Control wells were prepared as follows. For DMSO high controls, 1.0 μl of 100% DMSO was added into 1.0 ml SF. For low controls for PC-3 cells, 5 μM of Wortmannin (10 μl of 1 mM Wortmannin stock was added into 2 ml SF Medium. The supernatant media was removed and the plate was blotted. 100 μl of controls/media or compound/media were added to cells and placed in incubator for 2 hours. The supernatant media was removed and the plate was blotted. 55 μl of the MSD complete lysis buffer was added (10 mls Tris Lysis buffer, 200 ul protease inhibitor, 100 ul phosphatase inhibitor 1, and 100 ul phosphatase inhibitor II). The plate was placed on a plate shaker for 60 mins at 4 deg.
MSD plates were blocked for 1 hour by adding 150 μl of Blocking Solution (3% BSA) to each well. The MSD plates were washed 4× with TBST, and 50 μl lysates were transferred to MSD plate and place on plate shaker shake at 4 degrees O/N, light shaking (speed 3.5). The plate was washed 4× with TBST.
25 μl of Ab detection solution was added to each well. The plate was sealed and incubated 1 hr RT, light shaking (speed 3.5). The plate was washed 4 times with TBST. 150 μl of Read Buffer was added (5 mls 4×MSD Read Buffer+15 mls water). Finally the plate was read immediately on the MSD plate reader.

Setting [3] is: inhibition of P308 Akt in PC-3 cells using MSD, 2 hours, no serum, read-out: EC50.
Setting [4] is: inhibition of phospo-PDK1 in vitro.
Setting [5] is: inhibition of P308 Akt in PC-3 cells, 2 hours, no serum, MSD, read-out: EC50.
[6] abbreviates: PC-3, 2 h, inhibition of P308 Akt in PC-3 cells, 2 hours, no serum, MSD, read-out: EC50.

Sequence of PDK1 (O15530 51-359): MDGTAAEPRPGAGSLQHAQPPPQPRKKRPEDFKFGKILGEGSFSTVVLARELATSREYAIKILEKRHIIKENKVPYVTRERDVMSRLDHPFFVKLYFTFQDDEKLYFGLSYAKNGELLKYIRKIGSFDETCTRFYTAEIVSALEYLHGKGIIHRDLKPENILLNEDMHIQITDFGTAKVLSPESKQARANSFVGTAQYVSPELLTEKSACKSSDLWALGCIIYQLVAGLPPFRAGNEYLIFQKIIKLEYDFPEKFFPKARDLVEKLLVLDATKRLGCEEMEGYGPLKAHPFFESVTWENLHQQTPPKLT

Turning to `COC(=O)C[C@@H](Nc1ncc(C#N)cc1C(=O)N[C@@H](C)c1ccc(F)cc1)c1ccc(-c2c[nH]c3ncnc(N)c23)cc1` [Example 44, (R)-methyl 3-(4-(4-amino-7H-pyrrolo[2,3-d]pyrimidin-5-yl)phenyl)-3-(5-cyano-3-((S)-1-(4-fluorophenyl)ethylcarbamoyl)pyridin-2-ylamino)propanoate], in assay [1], the pIC50 is over 7.00. Also, in assay [2] (PC-3, 2 h), the pEC50 was 5.00 to 6.00.

As to `C[C@H](NC(=O)c1cc(C#N)cnc1NCc1ccc(-c2cnc(NCCCN(C)C)cn2)cc1)c1ccc(F)cc1` [Example 225, 5-Cyano-2-{4-[5-(3-dimethylamino-propylamino)-pyrazin-2-yl]-benzylamino}-N-[(S)-1-(4-fluoro-phenyl)-ethyl]-nicotinamide], the pIC50 in assay [1] (inhibition of PDK1 in vitro) is under 5.30. Besides, the pEC50 in assay [2] (setting [3]) was under 5.00.

In turn, `C[C@H](NC(=O)c1cc(C#N)cnc1NCc1ccc(-c2ccc3ncc4ncn(C)c4c3c2)s1)c1ccc(F)cc1` [Example 2.28, (S)-5-cyano-N-(1-(4-fluorophenyl)ethyl)-2-(((5-(1-methyl-1H-imidazo[4,5-c]quinolin-8-yl)thiophen-2-yl)methyl)amino) nicotinamide] gave a pIC50 in assay [1] (setting [4]) of over 7.00. For the same molecule, the pEC50 in assay [2] (setting [5]) was over 6.00.

`C[C@H](NC(=O)c1nc(C#N)cnc1NCc1ccc(-c2cnc3[nH]nc(N)c3n2)cc1)c1ccc(F)c(F)c1` [Example 182, 3-[4-(3-Amino-1H-pyrazolo[3,4-b]pyrazin-5-yl)-benzylamino]-6-cyano-pyrazine-2-carboxylic acid [(S)-1-(3,4-difluoro-phenyl)-ethyl]-amide] showed a pIC50 in assay [1] (inhibition of PDK1 in vitro) of over 7.00. This molecule had a pEC50 in assay [2] (PC-3, 2 h) of over 6.00.

The molecule `C[C@H](NC(=O)c1cc(C#N)cnc1NCc1ccc(-c2cnc(N)c(CCCN(C)C)n2)cc1)c1ccc(F)cc1` [Example 158, (S)-2-(4-(5-amino-6-(3-(dimethylamino)propyl)pyrazin-2-yl)benzylamino)-5-cyano-N-(1-(4-fluorophenyl)ethyl) nicotinamide] had a pIC50 in assay [1] (inhibition of PDK1 in vitro) of over 7.00. Besides, in assay [2] (setting [3]), the pEC50 was over 6.00.

The molecule `CC(C)Oc1cc(CNc2ncccc2C(=O)NCc2ccc(F)c(F)c2)cc(-c2ccc3ncccc3c2)c1` [Example 5.4, N-(3,4-difluorobenzyl)-2-(3-isopropoxy-5-(quinolin-6-yl)benzylamino) nicotinamide] showed a pIC50 in assay [1] (setting [4]) of 5.30 to 6.00. In addition, in assay [2] (setting [6]), the pEC50 is under 5.00.

For the molecule `Nc1n[nH]c2ncc(-c3ccc(CNc4ncc(C(F)(F)F)cc4-c4nc5cc(F)ccc5[nH]4)cc3)cc12` [Example 349, 5-(4-((3-(5-fluoro-1H-benzo[d]imidazol-2-yl)-5-(trifluoromethyl)pyridin-2-ylamino)methyl)phenyl)-1H-pyrazolo[3,4-b] pyridin-3-amine], the pIC50 in assay [1] (inhibition of PDK1 in vitro) was under 5.30. The pEC50 in assay [2] (setting [3]) was under 5.00.

In turn, `Nc1ncnc2ccc(-c3ccc(CNc4ncccc4C(=O)Nc4ccccc4Cl)s3)cc12` [Example 3.31, 2-({[5-(4-aminoquinazolin-6-yl)thiophen-2-yl]methyl}amino)-N-(2-chlorophenyl)pyridine-3-carboxamide (TFA salt)] had a pIC50 in assay [1] (setting [4]) of under 5.30. For the same molecule, the pEC50 in assay [2] (setting [5]) was under 5.00.

For `C[C@H](NC(=O)c1nc(C#N)cnc1NCc1ccc(-c2cn(CCCN)c3ncnc(N)c23)cc1)c1ccc(F)c(F)c1` [Example 318, (S)-3-(4-(4-amino-7-(3-aminopropyl)-7H-pyrrolo[2,3-d]pyrimidin-5-yl)benzylamino)-6-cyano-N-(1-(3,4-difluoro-phenyl)ethyl)pyrazine-2-carboxamide], the pIC50 in assay [1] (inhibition of PDK1 in vitro) was over 7.00. Further, the pEC50 in assay [2] (setting [3]) was over 6.00.

In assay [1] (setting [4]), `CCOc1ccnc(NCc2ccc(-c3ccc4ncnc(N)c4c3)s2)c1C(=O)N[C@@H](C)c1ccc(F)cc1` [Ex. 7.7, (S)-2-(((5-(4-aminoquinazolin-6-yl)thiophen-2-yl)methyl)amino)-N-(1-(4-fluoro-phenyl)ethyl)-4-ethoxynicotinamide] had a pIC50 of 6.00 to 7.00. Besides, the pEC50 in assay [2] (setting [5]) was under 5.00.

In assay [1] (setting [4]), `C[C@H](COc1ccc2c(c1)NC(=O)/C2=C\c1cnc[nH]1)Nc1ncccc1C(=O)NCc1ccc(F)c(F)c1` [Example 24, (R,Z)-2-(1-(3-((1H-imidazol-5-yl)methylene)-2-oxoindolin-6-yloxy)propan-2-ylamino)-N-(3,4-difluorobenzyl)nicotinamide] showed a pIC50 of over 7.00. Moreover, the pEC50 in assay [2] (setting [5]) is 5.00 to 6.00.

Molecule `C[C@H](NC(=O)c1nc(C#N)cnc1NCc1ccc(-c2ccc3c(N)ncnn23)cc1)c1ccc(F)c(F)c1` [Example 181, 3-[4-(4-Amino-pyrrolo [2,1-f][1,2,4]triazin-7-yl)-benzylamino]-6-cyano-pyrazine-2-carboxylic acid [(S)-1-(3,4-difluoro-phenyl)-ethyl]-amide] showed a pIC50 in assay [1] (inhibition of PDK1 in vitro) of over 7.00. Moreover, the pEC50 in assay [2] (setting [3]) was over 6.00.

For `Nc1ncnc2[nH]nc(-c3ccc(CNc4ncc(C(F)(F)F)cc4C(=O)NCc4ccc(F)c(F)c4)cc3)c12` [Example 329, 2-[4-(4-Amino-1H-pyrazolo [3,4-d]pyrimidin-3-yl)-benzylamino]-N-(3,4-difluoro-benzyl)-5-trifluoromethyl-nicotinamide], in assay [1] (inhibition of PDK1 in vitro), the pIC50 is over 7.00. The pEC50 in assay [2] (setting [3]) was over 6.00.

`NCCOc1nc(-c2ccc(CNc3ncc(C(F)(F)F)cc3C(=O)Nc3ccc(F)cc3)cc2)cnc1N` [Example 166, 2-{4-[5-Amino-6-(2-amino-ethoxy)-pyrazin-2-yl]-benzylamino}-N-(4-fluoro-phenyl)-5-trifluoromethyl-nicotinamide] showed a pIC50 in assay [1] (inhibition of PDK1 in vitro) of over 7.00. For the same molecule, in assay [2] (setting [3]), the pEC50 is over 6.00.

Take `C[C@H](NC(=O)c1cccnc1NCc1ccc(-c2ccc3ncnc(N)c3c2)s1)c1ccccn1` [Example 3.58, (S)-2-(((5-(4-aminoquinazolin-6-yl)thiophen-2-yl)methyl)amino)-N-(1-(pyridin-2-yl)ethyl) nicotinamide (TFA salt)]: the pIC50 in assay [1] (setting [4]) is 6.00 to 7.00. Moreover, in assay [2] (setting [6]), the pEC50 is 5.00 to 6.00.

Molecule `Nc1ncnc2ccc(-c3ccc(CNc4nccc5ncn(Cc6ccc(F)c(F)c6)c(=O)c45)s3)cc12` [Ex. 7.8] had a pIC50 in assay [1] (setting [4]) of over 7.00. Also, the pEC50 in assay [2] (setting [5]) was over 6.00.

Consider `CNc1n[nH]c2ncc(-c3ccc(CNc4ncc(C#N)nc4C(=O)N[C@@H](C)c4ccc(F)c(F)c4)cc3)cc12` [Example 52, (S)-6-cyano-N-(1-(3,4-difluorophenyl)ethyl)-3-(4-(3-(methylamino)-1H-pyrazolo[3,4-b]pyridin-5-yl)benzylamino)pyrazine-2-carboxamide], for which the pIC50 in assay [1] (inhibition of PDK1 in vitro) was over 7.00. The pEC50 in assay [2] (setting [3]) was over 6.00.

Regarding `C[C@H](NC(=O)c1cccnc1NCc1ccc(-c2cn(C)c(=O)c3ccccc23)s1)c1ccc(F)cc1` [Example 2.10, (S)-N-(1-(4-fluorophenyl)ethyl)-2-(((5-(2-methyl-1-oxo-1,2-di-hydroisoquinolin-4-yl)thiophen-2-yl)methyl)amino)nicotinamide], in assay [1] (setting [4]), the pIC50 was under 5.30. Besides, the pEC50 in assay [2] (setting [5]) is under 5.00.

On to `C[C@H](NC(=O)c1cccnc1NCc1ccc(-c2cc3c(cn2)nc(N)n3C)s1)c1ccc(F)cc1` [Example 2.23, (S)-2-(((5-(2-amino-1-methyl-1H-imidazo[4,5-c]pyridin-6-yl)thiophen-2-yl)methyl)amino)-N-(1-(4-fluorophenyl)ethyl) nicotinamide], for which the negative-log IC50 (pIC50) in assay [1] (setting [4]) is 5.30 to 6.00. In addition, the pEC50 in assay [2] (setting [5]) is under 5.00.

Values taken from patent US10030016B2 (Sunesis Pharmaceuticals, Inc., priority 2009, dated 2018).
